Common to all, as to experiment: relative viability (nuclei count vs DMSO), 5 days (fraction); higher = more cells survive
Compound in test [1]: CC1=NC=CC(=C1)C2=CC=C(C=C2)CC(=O)NC3=CC=C(C=C3)C4=CN=CC=C4 [Wnt-C59]
Put shortly:
(§1)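 Following overnight incubation at 37 °C, lung cancer cell lines in 1536-well plates were pinned with five library-drug doses (not always all listed) in √10 steps on vehicle-anchored plates. The cells then spent 5 days without medium change before a combined fix, permeabilisation and Hoechst stain, 4× imaging and MetaXpress nuclear counts. Viability is the treated-to-vehicle ratio of nuclei, taken as the median across plates. Only plates with control CV below 25% and at least one doubling passed.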

Compound in test [2]: CS(=O)(=O)CCNCc1ccc(-c2ccc3ncnc(Nc4ccc(OCc5cccc(F)c5)c(Cl)c4)c3c2)o1 [Lapatinib]
Put shortly: as §1

Compound in test [3]: CC1=NC=CC(=C1)C2=CC=C(C=C2)CC(=O)NC3=CC=C(C=C3)C4=CN=CC=C4 [Wnt-C59] + Cc1nc(Nc2ncc(C(=O)Nc3c(C)cccc3Cl)s2)cc(N2CCN(CCO)CC2)n1 [Dasatinib] (partner 0.075 µM)
The gist of the method: (§2)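 Relative viability is defined as nuclei in treated wells over nuclei in vehicle wells. Duplicate plates were run and medians reported. Lung cancer cell lines in 1536-well plates were dosed by pin tool one day after seeding, with one drug or with a fixed anchor-drug dose plus five library-drug doses (not always all listed) in √10 steps, and nuclei were counted after 5 days.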

Compound in test [4]: CS(=O)(=O)CCNCc1ccc(-c2ccc3ncnc(Nc4ccc(OCc5cccc(F)c5)c(Cl)c4)c3c2)o1 [Lapatinib] + O=C(CCCCCCC(=O)Nc1ccccc1)NO [Vorinostat] (partner 1 µM)
Put shortly:
as §2

BEN: the relative viability worked out at 0.936 in test [1] (0.001 µM); 1 in test [1] (0.01 µM); 1.02 in test [1] (0.03162 µM); 1.07 in test [1] (0.1 µM); 0.793 in test [2] (0.02 µM); 0.907 in test [2] (0.06325 µM). Also, the relative viability was 0.935 in test [2] (0.2 µM); 1 in test [2] (0.6325 µM); 0.962 in test [2] (2 µM); 0.74 in test [2] (2 µM, anchor plate); 0.329 in test [3] (first compound 0.001 µM); 0.3 in test [3] (first compound 0.01 µM). Moreover, the relative viability is 0.35 in test [3] (first compound 0.03162 µM); 0.385 in test [3] (first compound 0.1 µM); 0.506 in test [4] (first compound 0.02 µM); 0.587 in test [4] (first compound 0.06325 µM); 0.586 in test [4] (first compound 0.2 µM); 0.559 in test [4] (first compound 0.6325 µM). For the same cell line, in test [4] (first compound 2 µM), the relative viability was determined as 0.51.

Take LCLC-103H: the relative viability in test [1] (0.001 µM) came out at 0.959; in test [1] (0.01 µM), 0.986; in test [1] (0.03162 µM) it was 0.987; in test [1] (0.1 µM) it was 1.03; in test [2] (0.02 µM), 0.779; in test [2] (0.06325 µM), 0.951. Further, the relative viability in test [2] (0.2 µM) came out at 0.997; in test [2] (0.6325 µM) it was 1.02; in test [2] (2 µM), 0.975; in test [3] (first compound 0.001 µM), 0.509; in test [3] (first compound 0.01 µM), 0.471; in test [3] (first compound 0.03162 µM), 0.493. Moreover, the relative viability in test [3] (first compound 0.1 µM) worked out at 0.516; in test [4] (first compound 0.02 µM), 0.582; in test [4] (first compound 0.06325 µM), 0.65; in test [4] (first compound 0.2 µM), 0.768; in test [4] (first compound 0.6325 µM) it was 0.779; in test [4] (first compound 2 µM), 0.692.

On to NCI-H1734, for which the relative viability stood at 0.986 in test [1] (0.001 µM); 0.961 in test [1] (0.01 µM); 1.01 in test [1] (0.03162 µM); 0.957 in test [1] (0.1 µM); 0.794 in test [2] (0.06325 µM); 1.01 in test [2] (0.2 µM). Moreover, the relative viability is 1.07 in test [2] (0.6325 µM); 0.943 in test [2] (2 µM); 1.07 in test [2] (2 µM, anchor plate); 0.418 in test [3] (first compound 0.001 µM); 0.452 in test [3] (first compound 0.01 µM); 0.516 in test [3] (first compound 0.03162 µM). The relative viability in test [3] (first compound 0.1 µM) is 0.442; in test [4] (first compound 0.06325 µM) it was 0.708; in test [4] (first compound 0.2 µM), 0.816; in test [4] (first compound 0.6325 µM), 0.88; in test [4] (first compound 2 µM), 0.792.

Regarding NCI-H596, the relative viability in test [1] (0.001 µM) was found to be 0.93; in test [1] (0.01 µM), 0.936; in test [1] (0.03162 µM) it was 1.12; in test [1] (0.1 µM) it was 1.06; in test [2] (0.06325 µM), 0.939; in test [2] (0.2 µM) it was 0.967. Also, the relative viability is 1.14 in test [2] (0.6325 µM); 0.919 in test [2] (2 µM); 1.03 in test [2] (2 µM, anchor plate); 0.609 in test [3] (first compound 0.001 µM); 0.477 in test [3] (first compound 0.01 µM); 0.554 in test [3] (first compound 0.03162 µM). Further, the relative viability stood at 0.611 in test [3] (first compound 0.1 µM); 0.538 in test [4] (first compound 0.06325 µM); 0.606 in test [4] (first compound 0.2 µM); 0.711 in test [4] (first compound 0.6325 µM); 0.537 in test [4] (first compound 2 µM).

On to SW 1573, for which the relative viability in test [1] (0.001 µM) stood at 1.02; in test [1] (0.01 µM), 0.967; in test [1] (0.03162 µM), 1.1; in test [1] (0.1 µM), 0.91; in test [2] (0.02 µM), 0.952; in test [2] (0.06325 µM) it was 0.896. Besides, the relative viability in test [2] (0.2 µM) is 0.992; in test [2] (0.6325 µM) it was 1.06; in test [2] (2 µM), 0.896; in test [2] (2 µM, anchor plate), 1.12; in test [3] (first compound 0.001 µM), 0.557; in test [3] (first compound 0.01 µM), 0.699. The relative viability was determined as 0.67 in test [3] (first compound 0.03162 µM); 0.314 in test [3] (first compound 0.1 µM); 0.612 in test [4] (first compound 0.06325 µM); 0.987 in test [4] (first compound 0.2 µM); 0.828 in test [4] (first compound 0.6325 µM); 0.774 in test [4] (first compound 2 µM).

Regarding RERF-LC-KJ, the relative viability in test [1] (0.001 µM) came out at 1; in test [1] (0.01 µM) it was 0.978; in test [1] (0.03162 µM), 1.09; in test [1] (0.1 µM) it was 0.987; in test [2] (0.02 µM), 0.992; in test [2] (0.06325 µM), 0.88. The relative viability turned out to be 0.905 in test [2] (0.2 µM); 0.826 in test [2] (0.6325 µM); 0.737 in test [2] (2 µM); 0.861 in test [2] (2 µM, anchor plate); 0.866 in test [3] (first compound 0.001 µM); 0.847 in test [3] (first compound 0.01 µM). The relative viability was found to be 1.04 in test [3] (first compound 0.03162 µM); 0.79 in test [3] (first compound 0.1 µM); 0.543 in test [4] (first compound 0.02 µM); 0.632 in test [4] (first compound 0.06325 µM); 0.673 in test [4] (first compound 0.2 µM); 0.647 in test [4] (first compound 0.6325 µM). Further, the relative viability in test [4] (first compound 2 µM) came out at 0.601.

As for NCI-H1651, the relative viability amounted to 0.985 in test [1] (0.001 µM); 0.998 in test [1] (0.01 µM); 0.997 in test [1] (0.03162 µM); 1 in test [1] (0.1 µM); 0.942 in test [2] (0.02 µM); 0.811 in test [2] (0.06325 µM). Further, the relative viability in test [2] (0.2 µM) is 0.994; in test [2] (0.6325 µM) it was 0.926; in test [2] (2 µM) it was 0.989; in test [2] (2 µM, anchor plate), 0.827; in test [3] (first compound 0.001 µM), 0.385; in test [3] (first compound 0.01 µM), 0.421. For the same cell line, the relative viability in test [3] (first compound 0.03162 µM) came out at 0.405; in test [3] (first compound 0.1 µM), 0.447; in test [4] (first compound 0.02 µM), 0.615; in test [4] (first compound 0.06325 µM), 0.517; in test [4] (first compound 0.2 µM), 0.477; in test [4] (first compound 0.6325 µM) it was 0.543. Moreover, in test [4] (first compound 2 µM), the relative viability turned out to be 0.521.

For the origin of these results see the supplement of paper PMC10307832.
